Here are results for two compounds from patent publication US20140356383A1, “ADMINISTRATION OF AN ANTI-GCC ANTIBODY-DRUG CONJUGATE AND A DNA DAMAGING AGENT IN THE TREATMENT OF CANCER” (priority 2013, published 2014).

Data set [1] relates to PHTX-249 Pa s.c. xenograft. The data set can be described thus: 5F9 vcMMAE and gemcitabine in PHTX-249 Pa s.c. xenografts (Study CPGC-13-EF08). The following applies: for dAUC: reference vehicle. In kind it is in vivo, CB-17 SCID mice. The protocol: 264.4 ul stock Gemcitabine into 3135.6 ul NS.
(§1) Day D0 was the first day of treatment.
(§2) Tumor volume was calculated using the formula: […]
(§3) A negative dAUC is interpreted as an increase in AUC relative to the reference. It is important to evaluate not only the P value, but also the dAUC. Comparisons with significant P values, but small dAUC values, may not be of interest.

Data set [2] relates to PHTX-215 Pa s.c. xenograft. The data set can be described thus: 5F9 vcMMAE and gemcitabine in PHTX-215 Pa s.c. xenografts (Study CPGC-13-EF10). In kind it is in vivo, CB-17 SCID mice. The settings on record: for dAUC (percent decrease in treatment AUC relative to reference group V, vehicle): PHTX-215 Pa s.c. xenograft, CB-17 SCID mice. The method, then: as §1, §2
Table 77A the annotation table for group symbols. […] A negative dAUC is interpreted as an increase in AUC relative to the reference. It is important to evaluate not only the P value, but also the dAUC. Comparisons with significant P values, but small dAUC values, may not be of interest.

For data set [3], the system named is PHTX-249 Pa s.c. xenograft. Description: 5F9 vcMMAE and gemcitabine in PHTX-249 Pa s.c. xenografts (Study CPGC-13-EF05). The format is in vivo, CB-17 SCID mice. The settings on record: reference vehicle. The method, then:
as §1, §2, §3

In another data set the test system is 293-GCC#2 s.c. tumors. The data set can be described thus: Efficacy study with 5F9vcMMAF and 5F9-DMx in 293-GCC#2 s.c. tumors, q14d×5. In kind it is in vivo. The settings on record: 293-GCC#2 bearing SCID mice, 75 and 150 μg/kg toxin. The method, then:
5F9-SPDB-DM4, 5F9-SMCC-DM1 and 5F9vcMMAF were tested for efficacy in the 293-GCC#2 tumor model at two doses (75 μg/kg and 150 […] toxin), on a q14d×5 schedule. Specifically, this study included vehicle-treated control, Sc209-DM1 (150 μg/kg DM1 eq), Sc209-DM4 (150 μg/kg DM4 eq), Sc209-vcMMAF (150 μg/kg MMAF eq), 5F9-DM1 (150 μg/kg DM1 eq), 5F9-DM1 (75 μg/kg DM1 eq), 5F9-DM4 (150 μg/kg DM4 eq), 5F9-DM4 (75 μg/kg DM4 eq), 5F9-vcMMAF (150 μg/kg MMAF eq), and 5F9-vcMMAF (75 μg/kg MMAF eq). Taconic female mice bearing 293-GCC#2 cells (10 mice per group) were used.
FIG. 1 depicts tumor growth in 293-GCC#2 bearing SCID mice treated with 5F9vc-MMAF, -DM1, and -DM4 on a q14d schedule. […] Therefore at these doses and schedules, 5F9-SPDB-DM4 had the greatest efficacious differential from its control conjugate.

The next data set concerns 293-GCC#2 tumors. Description: PK/PD study (phospho-histone H3) in 293-GCC#2 tumor bearing mice. In kind it is in vivo. From the text: Phospho-histone H3 was detected by antibody (Upstate Biotechnology, now Millipore, Billerica, Mass.) staining of paraffin embedded sections of tumors.
In another data set the test system is HT29-GCC#5 s.c. tumors. Description: Pilot efficacy studies in HT29-GCC#5 s.c. tumors. The format is in vivo. The following applies: 150 μg/kg on a q3d×5 schedule, mice bearing HT29-GCC#5 tumors. The method, then:
Studies were performed to determine efficacious conjugates and dosage regimens in mice bearing HT29-GCC#5 tumors. Mice were dosed with single or multiple doses. These studies determined that there was toxicity at too frequent dosing at higher levels of toxin conjugate (e.g., 150 μg/kg 5F9vcMMAF on a q3d×5 schedule). Another study determined that q14d×5 schedule was too infrequent in this model to allow some toxin conjugates to show significant efficacy vs. controls.

The subject of the next data set is HT 29 GCC #18 cells. The data set can be described thus: Direct cytotoxicity assay (WST), HT 29 GCC #18 cells. In kind it is cell-based, human. The settings on record: auristatin ADCs.
The test system of the next data set is 293 GCC#2 tumors. The data set can be described thus: Efficacy study with auristatin conjugates in 293 GCC#2 tumors, q7d×4. The format is in vivo, SCID mice. The following applies: for T/C: treatment/control. The method, then:
293 GCC#2 tumor-bearing SCID mice were treated with 5F9 conjugates with vc MMAE, vcMMAF or mcMMAF at three doses in comparison with 209 conjugates of these toxins or with free toxins or vehicle control. Doses were administered iv on a q7d×4 schedule. Tumors were harvested at days 3, 7, 10, 13 and 17. […] Table 18 provides a summary of the results (TGI=tumor growth inhibition, T/C=treatment/control, TGD=tumor growth delay, CR/PR=complete response/partial response; p value=measure to judge statistical significance, NS=not significant).

The mark [4] stands for this setting: PHTX-215 Pa, immunoconjugate plus gemcitabine 15 mg/kg on days 1 and 3, or single agent gemcitabine.

Turning to `Nc1ccn([C@@H]2O[C@H](CO)[C@@H](O)C2(F)F)c(=O)n1` [gemcitabine], the “tumor regressions (animals)” value is on record as “no tumor regressions” in data set [1] (PHTX-249 Pa (Studies CPGC-13-EF05/EF08), 5F9 vcMMAE 7.5 mg/kg, gemcitabine 15 mg/kg on days 1 and 3, alone or combined); “no tumor regressions” in data set [2] (setting [4]). Besides, the tumor growth delay in data set [1] (PHTX-249 Pa, 5F9 vcMMAE plus gemcitabine 15 mg/kg on days 1 and 3 vs single agent) turned out to be 17 days; in data set [2] (setting [4]) it was 22.7 days. Besides, the dAUC in data set [1] (group D: Gemcitabine 15 mg/kg BIW) is on record as 52.4%; in data set [1] (group E: Gemcitabine 15 mg/kg D1,D3/week), 76.9%; in data set [3] (group B: Gemcitabine 15 mg/kg BIW), 46.0%; in data set [3] (group C: Gemcitabine 20 mg/kg BIW) it was 46.7%. Besides, the TGI in data set [2] (setting [4]) worked out at 69%. Moreover, the figures for the “dAUC (percent decrease in treatment AUC relative to reference group V, vehicle)” value in data set [2] (group C: Gemcitabine 15 mg/kg IV D1,D3/week x3) and in data set [2] (group F: Gemcitabine 20 mg/kg IV BIW) were 61.0% and 65.2%, respectively.
In the case of “5F9-vcMMAF: 5F9 anti-GCC antibody conjugated with mc-vc-MMAF”, the “efficacy (tumor growth, FIG. 1)” value in the data set on 293-GCC#2 s.c. tumors is given as “the most efficacious”. The “Average % Tumor cells pH 3 positive” value is listed as 4.235% in the data set on 293-GCC#2 tumors (single iv dose 75 μg/kg, 1 hr); 4.184% in the data set on 293-GCC#2 tumors (single iv dose 75 μg/kg, 4 hr); 4.93% with 293-GCC#2 tumors (single iv dose 75 μg/kg, 8 hr); 20.22% in the data set with 293-GCC#2 tumors (single iv dose 75 μg/kg, 24 hr); 9.921% in the data set with 293-GCC#2 tumors (single iv dose 75 μg/kg, 48 hr); 10.38% in the data set on 293-GCC#2 tumors (single iv dose 75 μg/kg, 96 hr). Also, the “Average % Tumor cells pH 3 positive” value was found to be 3.466% in the data set on 293-GCC#2 tumors (single iv dose 150 μg/kg, 1 hr); 4.417% with 293-GCC#2 tumors (single iv dose 150 μg/kg, 4 hr); 8.594% in the data set on 293-GCC#2 tumors (single iv dose 150 μg/kg, 8 hr); 21.54% in the data set on 293-GCC#2 tumors (single iv dose 150 μg/kg, 24 hr); 15.16% in the data set with 293-GCC#2 tumors (single iv dose 150 μg/kg, 48 hr); 11.12% with 293-GCC#2 tumors (single iv dose 150 μg/kg, 96 hr). The “toxicity at too frequent dosing” value in the data set on HT29-GCC#5 s.c. tumors is “toxicity”. Moreover, the “LD 50 (nM)” value in the data set on HT 29 GCC #18 cells is on record as >10,000 nM. In addition, the TGI in the data set with 293 GCC#2 tumors (37.5 μg/kg iv q7d×4) is given as 65.2; in the data set with 293 GCC#2 tumors (75 μg/kg iv q7d×4), 88.5; in the data set with 293 GCC#2 tumors (150 μg/kg iv q7d×4), 97. The figures for the T/C with 293 GCC#2 tumors (37.5 μg/kg iv q7d×4), in the data set on 293 GCC#2 tumors (75 μg/kg iv q7d×4) and with 293 GCC#2 tumors (150 μg/kg iv q7d×4) were 0.35, 0.12 and 0.03, respectively. The same compound came in with a TGD in the data set on 293 GCC#2 tumors (37.5 μg/kg iv q7d×4, tumor growth delay) of 7.1.
